US9018253B2, “Phenylcarbamate compound and muscle relaxant containing the same” (Bio-Pharm Solutions Co., Ltd., priority 2010, dated 2015)
Marks after values point to notes of the source that are not given here.

What was measured:
Format in all cases: in vivo
male mice (ICR) [1] = assay: Residence time on a rotarod rotating at a fixed speed (Fixed 15 r.p.m. Rotarod, muscle relaxation); details: intraperitoneal (10 ul/g, bw), at time of maximum effect, 50% vs vehicle only (100%), 15 rpm, max 10 min
Method: (§1) For testing, male mice (ICR) were purchased from ORIENT BIO INC. (Korea), divided into several groups with 6 mice in each group, and were adapted for 4-5 days. The mice having the weight ranging from 19 g to 26 g were employed for the test. The pharmacological effect of the test compounds on muscle relaxation was evaluated by Rotarod test, grip strength test, and muscular force (wire hang) test. All mice were adapted to the test environment at one hour before starting the tests. The pharmacological effects of all the test compounds were evaluated by administration through peritoneal cavity of the mice (10 ul/g, bw).
All the mice to be tested were preliminarily trained for 5 minutes on a rod rotating at the rate of 15 revolutions per a minute. The mice that could not remain on the rod without falling off therefrom for a minimum of 2 minutes were excluded from this testing. After the training, all the mice were allowed to rest for 45-60 minutes. Before the administration of the test compounds, the mice were subjected to a further training for one minute on the rod rotating under the same condition, where the mice falling off from the rod were excluded from this experimentation. […] In case a mouse stays on the rod until the test is finished, the time was recorded as 10 minutes. As test time for evaluation, a maximum of 10 minutes was applied. This experimentation was conducted according to the method described in the reference, ‘Yasuda et al. (2005) Antipyretic, analgesic and muscle relaxant activities of Pueraria isoflavonoids and their metabolites from Pueraria lobata Ohwi—a traditional Chinese drug. Biol. Pharm. Bull. 28: 1224-1228’.
(§2) The obtained results are shown as mean±sem. The difference between the groups was statistically analyzed by ANOVA, and then, further examined by Dunnett's test or Bonferroni test. If p is less than 0.05, it was determined that the difference between the groups had statistical significance.
(§3) The results of muscle relaxation activity of the phenyl carbamate compounds measured in above Experimental Examples 1 to 4 are shown in following Table 3.

male mice (ICR) [2] = assay: Grip strength test (forelimbs, muscle relaxation); details: for ED50: Mus musculus, ip, intraperitoneal (10 ul/g, bw), at time of maximum effect, 50% vs vehicle only (100%), read-out: MR test ED50, III = Grip strength
Method: as §1
A grip strength test using the test animals' forelimbs was performed using an instrument equipped with triangle ring and designed so as to easily grip with the forelimbs of experimental animals, manufactured from Ugo Basile Inc. (Ugo Basile, Model 47106, Italy). The test was conducted before and after administration of the compounds to evaluate the effects thereof. […] The mouse was made to grip the rod with its forelimbs, and its tail was pulled, where the force at which the mouse detached from the rod was recorded. The instrument indicated the force in grams. All of the mice were given 3 opportunities for test, and the 3 highest values among the test opportunities were selected and the mean value was used as the test result. This experimentation was conducted according to the method described in the reference, ‘Nevins et al. (1993) Quantitative grip strength assessment as a means of evaluating muscle relaxation in mice. Psychopharmacol. 110: 92-96’.
as §2, §3

male mice (ICR) [3] = assay: Endurance time on a rotarod rotating at accelerated speed (Acc. Rotarod, muscle relaxation); details: Mus musculus, ip, 5 min, intraperitoneal (10 ul/g, bw), at time of maximum effect, 50% of muscle relaxation activity vs vehicle only (100%), rod accelerated 4 to 40 rpm, max 5 min, read-out: MR test ED50, I = Acc. Rotarod
Method: as §1
At 24 hours before testing, the mice to be tested were preliminarily trained for 5 minutes on a rod rotating at the rate of 6 revolutions per a minute. The pharmacological effect on muscle relaxation of the test compounds were evaluated by observing the mice on a rod for 5 minutes, where the rod was accelerated from 4 to 40 revolutions per a minute during the test time. The endurance time that each mouse endures on the acceleratedly rotated rod without falling off from the rod was recorded. As test time for evaluation, a maximum of 5 minutes was applied. […] This experimentation was conducted according to the method described in the reference, ‘Monville et al. (2006) Comparison of incremental and accelerating protocol of the rotarod test for the assessment of motor deficits in the 6-OHDA model. J. Neurosci. Meth. 158: 219-223’.
as §2, §3

male mice (ICR) [4] = assay: Wire hang test (muscular force, muscle relaxation); details: for ED50: Mus musculus, ip, intraperitoneal (10 ul/g, bw), at time of maximum effect, 50% vs vehicle only (100%), read-out: MR test ED50, IV = Wire hang; for IV = Wire hang, effect (%) compared to that of control treated with vehicle only: 100 mg/kg administered, intraperitoneal
Method: as §1
This experimentation was conducted using a metal wire of 30 cm in length, which was suspended between two pillars at a height of about 40 cm from the bottom covered with a soft pad. […] Each mouse was made to grip the wire using two forelimbs, and the elapse time before the mouse fell off from the wire to the pad on the bottom was recorded in seconds. Each mouse was given 5 opportunities for this test at an interval of 2 minutes period. The highest 3 records among the test opportunities were selected and the mean value was used as the test result. This experimentation was conducted according to the method described in the reference, ‘Jacqueline N. Crawley (1999) Behavioral phenotyping of transgenic and knockout mice: experimental design and evaluation of general health, sensory functions, motor abilities, and specific behavioral tests. Brain Res. 835: 18-26’.
as §2, §3

SMILES	MR test ED50, II = Fixed 15 r.p.m. Rotarod (male mice (ICR) [1])	further results
CNC(=O)O[C@@H](C)[C@@H](O)c1ccccc1Cl [Compound 15, 1-(2-chlorophenyl)-(S)-1-hydroxypropyl-(S)-2-N-methylcarbamate]	42.8 mg/kg, bw	–
C[C@H](OC(=O)NC1CC1)[C@@H](O)c1ccccc1Cl [Compound 18, 1-(2-chlorophenyl)-(S)-1-hydroxypropyl-(S)-2-N-cyclopropylcarbamate]	61.2 mg/kg, bw	–
C[C@H](OC(N)=O)[C@H](O)c1ccccc1Cl [Compound 4, 1-(2-chlorophenyl)-(R)-1-hydroxypropyl-(S)-2-carbamate]	65.0 mg/kg, bw	ED50 (male mice (ICR) [2]): 124 mg/kg; ED50 (male mice (ICR) [3]): 69.3 mg/kg; ED50 (male mice (ICR) [4]): 40 mg/kg
CC(C)NC(=O)O[C@H](C)[C@H](O)c1ccccc1Cl [Compound 24, 1-(2-chlorophenyl)-(R)-1-hydroxypropyl-(R)-2-N-isopropylcarbamate]	44.3 mg/kg, bw	–
C[C@@H](OC(N)=O)[C@H](O)c1ccccc1I [Compound 66, 1-(2-iodophenyl)-(R)-1-hydroxypropyl-(R)-2-carbamate]	67.9 mg/kg, bw	–
CNC(=O)OC(C)C(O)c1ccccc1Cl (racemic) [Compound 29, 1-(2-chlorophenyl)-1-hydroxypropyl-2-N-methylcarbamate]	41.0 mg/kg, bw	–
C[C@H](OC(N)=O)[C@@H](O)c1ccccc1Cl [Compound 1, 1-(2-chlorophenyl)-(S)-1-hydroxypropyl-(S)-2-carbamate]	23.3 mg/kg, bw	–
CCCNC(=O)O[C@@H](C)[C@@H](O)c1ccccc1Cl [Compound 16, 1-(2-chlorophenyl)-(S)-1-hydroxypropyl-(S)-2-N-propylcarbamate]	61.6 mg/kg, bw	–
C[C@@H](OC(N)=O)[C@H](O)c1ccccc1F [Compound 64, 1-(2-fluorophenyl)-(R)-1-hydroxypropyl-(R)-2-carbamate]	–	III = Grip strength, effect (%) compared to that of control treated with vehicle only (male mice (ICR) [2]; 120 mg/kg administered, intraperitoneal): 120 ^a (35.4%); IV = Wire hang, effect (%) compared to that of control treated with vehicle only (male mice (ICR) [4]): 100 ^a (30.8%)
CC[C@H](OC(N)=O)[C@@H](O)c1ccccc1I [Compound 67, 1-(2-iodophenyl)-(S)-1-hydroxybutyl-(S)-2-carbamate]	30.2 mg/kg, bw	–
C[C@H](OC(N)=O)[C@@H](O)c1ccccc1F [Compound 63, 1-(2-fluorophenyl)-(S)-1-hydroxypropyl-(S)-2-carbamate]	–	IV = Wire hang, effect (%) compared to that of control treated with vehicle only (male mice (ICR) [4]): 100 ^a (84.2%)
CC(OC(N)=O)C(O)c1ccccc1Cl (racemic) [Compound 3, 1-(2-chlorophenyl)-1-hydroxypropyl-2-carbamate]	47.7 mg/kg, bw	–
C[C@@H](OC(=O)NC1CC1)[C@H](O)c1ccccc1Cl [Compound 25, 1-(2-chlorophenyl)-(R)-1-hydroxypropyl-(R)-2-N-cyclopropylcarbamate]	18.3 mg/kg, bw	ED50 (male mice (ICR) [2]): 46.1 mg/kg; ED50 (male mice (ICR) [3]): 30 mg/kg; ED50 (male mice (ICR) [4]): 32.9 mg/kg
CNC(=O)O[C@H](C)[C@H](O)c1ccccc1Cl [Compound 22, 1-(2-chlorophenyl)-(R)-1-hydroxypropyl-(R)-2-N-methylcarbamate]	25.1 mg/kg, bw	–
C[C@@H](OC(N)=O)[C@@H](O)c1ccccc1Cl [Compound 5, 1-(2-chlorophenyl)-(S)-1-hydroxypropyl-(R)-2-carbamate]	65.5 mg/kg, bw	ED50 (male mice (ICR) [2]): 95 mg/kg; ED50 (male mice (ICR) [3]): 66.9 mg/kg; ED50 (male mice (ICR) [4]): 52.5 mg/kg
C[C@@H](OC(N)=O)[C@H](O)c1ccccc1Cl [Compound 2, 1-(2-chlorophenyl)-(R)-1-hydroxypropyl-(R)-2-carbamate]	76.5 mg/kg, bw	–
C[C@H](OC(N)=O)[C@@H](O)c1ccccc1I [Compound 65, 1-(2-iodophenyl)-(S)-1-hydroxypropyl-(S)-2-carbamate]	28.0 mg/kg, bw	–
CC(C)NC(=O)O[C@@H](C)[C@@H](O)c1ccccc1Cl [Compound 17, 1-(2-chlorophenyl)-(S)-1-hydroxypropyl-(S)-2-N-isopropylcarbamate]	66.4 mg/kg, bw	–
